The text below walks through data of US20170342064A1, “COMPOUNDS FOR THE TREATMENT OF CANCER” (Bayer Pharma Aktiengesellschaft, priority 2014, published 2017).

The test system of series [1] is HeLa human cervical tumor cells. As to the kind of experiment: Proliferation assay (crystal violet), HeLa cells. The class given is cell-based. As to conditions: 96 h, 4 days incubation, crystal violet staining, read-out: Inhibition of cell proliferation, cell Line: HeLa IC50. How it is done: Cultivated tumor cells (MCF7, hormone dependent human mammary carcinoma cells, ATCC HTB22; NCI-H460, human non-small cell lung carcinoma cells, ATCC HTB-177; DU 145, hormone-independent human prostate carcinoma cells, ATCC HTB-81; HeLa-MaTu, human cervical carcinoma cells, EPO-GmbH, Berlin; HeLa-MaTu-ADR, multidrug-resistant human cervical carcinoma cells, EPO-GmbH, Berlin; HeLa human cervical tumor cells, ATCC CCL-2; B16F10 mouse melanoma cells, ATCC CRL-6475) were plated at a density of 5000 cells/well (MCF7, DU145, HeLa-MaTu-ADR), 3000 cells/well (NCI-H460, HeLa-MaTu, HeLa), or 1000 cells/well (B16F10) in a 96-well multititer plate in 200 μl of their respective growth medium supplemented 10% fetal calf serum. After 24 hours, the cells of one plate (zero-point plate) were stained with crystal violet (see below), while the medium of the other plates was replaced by fresh culture medium (200 μl), to which the test substances were added in various concentrations (0 μM, as well as in the range of 0.01-30 μM; the final concentration of the solvent dimethyl sulfoxide was 0.5%). The cells were incubated for 4 days in the presence of test substances. Cell proliferation was determined by staining the cells with crystal violet: the cells were fixed by adding 20 μl/measuring point of an 11% glutaric aldehyde solution for 15 minutes at room temperature. After three washing cycles of the fixed cells with water, the plates were dried at room temperature. The cells were stained by adding 100 μl/measuring point of a 0.1% crystal violet solution (pH 3.0). After three washing cycles of the stained cells with water, the plates were dried at room temperature. The dye was dissolved by adding 100 μl/measuring point of a 10% acetic acid solution. The extinction was determined by photometry at a wavelength of 595 nm. The change of cell number, in percent, was calculated by normalization of the measured values to the extinction values of the zero-point plate (=0%) and the extinction of the untreated (0 μm) cells (=100%). The IC50 values were determined by means of a 4 parameter fit.
The reference examples described above are characterized by the following IC50 values, determined in a HeLa cell proliferation assay (as described above): […]

The nature of series [2]: Stability in buffer at pH 7.4. Conditions: buffer pH 7.4, 37° C., HPLC peak area ratio. The format is physicochemical. As for the experimental part: 0.3 mg of the test compound are solved in 0.1 ml dimethylsulfoxide and 0.4 ml acetonitrile. For complete dissolution the HPLC vial with the sample solution is sonified for about 20 seconds. Then 1.0 ml of the buffer solution is added, and the sample is again treated in the ultrasonic bath. 90 g of sodium chloride, 13.61 g of potassium dihydrogen phosphate and 83.35 g of 1 M sodium hydroxide solution are made up to 1 litre with Millipore water and then diluted 1:10. 10 μl portions of the sample solution are analysed by HPLC to determine the amount of the test compound over a period of 24 hours at 37° C. The peak areas in percentage are used for quantification. Agilent 1100 with DAD (G1315B), binary pump (G1312A), autosampler (G1329A), column oven (G1316A), thermostat (G1330B); column: Kromasil 100 C18, 250 mm×4 mm, 5 μm; column temperature: 37° C.; eluent A: water+5 ml of perchloric acid/litre, eluent B: acetonitrile. 0 min 98% A, 2% B→0-3.0 min 85% A, 15% B→3.0-8.0 min 50% A, 50% B→8.0-16.0 min 50% A, 50% B→16.0-20.0 min 10% A, 90% B→20.0-21.0 10% A, 90% B→21.0-24.0 min 98% A, 2% B→24.0-25.0 min 98% A, 2% B; flow rate: 1.5 ml/min; UV detection: 210 nm. The ratio of the peak areas (F) at different time points in relation to the peak areas at the starting time are shown in Table 1 for representative examples: […]

The nature of series [3]: In vitro stability in rat plasma (HPLC detection). The format is in vitro ADME, wistar rat. As to conditions: 37° C., HPLC peak area ratio. How it is done: (§1) 1 mg of test compound is dissolved in 1.25 ml dimethylsulfoxide. Then 1.25 ml water are added. 0.5 ml of this sample solution are mixed with 0.5 ml heparinized and 37° C. warm plasma (wistar rat plasma or human plasma). A first sample (10 μl) is immediately taken for HPLC analysis. In the period up to 4 h after the start of incubation further 10 μl aliquots are taken after 30, 60, 90, 120 and 240 minutes and the amount of the test compound is determined. Agilent 1100 with DAD (G1315A), binary pump (G1312A), autosampler (G1329A), column oven (G1316A), thermostat (G1330B); column: Kromasil 100 C18, 250 mm×4 mm, 5 μm; column temperature: 45° C.; eluent A: water+5 ml of perchloric acid/litre, eluent B: acetonitrile. 0 min 98% A, 2% B→0-3.0 min 85% A, 15% B→3.0-8.0 min 55% A, 45% B→8.0-16.0 min 55% A, 45% B→16.0-20.0 min 10% A, 90% B→20.0-21.0 10% A, 90% B→21.0-24.0 min 98% A, 2% B→24.0-25.0 min 98% A, 2% B; flow rate: 1.5 ml/min; UV detection: 222 nm.

Series [4] is described as follows: In vitro stability in human plasma (HPLC detection). As to conditions: 37° C., HPLC peak area ratio. The format is in vitro ADME. How it is done:
as §1

With `COc1cc(C(=O)N2CCC2)ccc1Nc1nc2cc(-c3ccc(NC(=O)[C@H](C)c4ccc(F)cc4)cc3)ccn2n1` [Reference Example 01.06, (2R)—N-[4-(2-{[4-(azetidin-1-ylcarbonyl)-2-methoxyphenyl]amino}[1,2,4]triazolo[1,5-a]pyridin-7-yl)phenyl]-2-(4-fluorophenyl)propanamide], in series [1], the IC50 was ≤ 100 nM.

With `C[C@@H](C(=O)Nc1ccc(-c2ccn3nc(Nc4ccc(S(C)(=O)=O)cc4OCC(F)(F)F)nc3c2)cc1)c1ccc(F)cc1` [Reference Example 01.05, (2R)-2-(4-fluorophenyl)-N-[4-(2-{[4-(methylsulfonyl)-2-(2,2,2-trifluoroethoxy)phenyl]amino}[1,2,4]triazolo[1,5-a]pyridin-7-yl)phenyl]propanamide], the IC50 in series [1] is ≤ 100 nM. With `COc1cc(C(=O)N2CC(F)C2)ccc1Nc1nc2cc(-c3ccc(NC(=O)[C@H](C)c4ccc(F)cc4)cc3)ccn2n1` [Reference Example 01.02, (2R)—N-{4-[2-({4-[(3-fluoroazetidin-1-yl)carbonyl]-2-methoxyphenyl}amino)[1,2,4]triazolo[1,5-a]pyridin-7-yl]phenyl}-2-(4-fluorophenyl)propanamide], in series [1], the IC50 is ≤ 100 nM. Turning to `C[C@@H](C(=O)Nc1ccc(-c2ccn3nc(N(C(=O)OCOC(=O)[C@@H](N)C(C)(C)C)c4ccc(C(=O)N5CC(F)C5)cc4OCC(F)(F)F)nc3c2)cc1)c1ccc(F)cc1.Cl` [Example 1.1, [({4-[(3-fluoroazetidin-1-yl)carbonyl]-2-(2,2,2-trifluoroethoxy)phenyl}[7-(4-{[(2R)-2-(4-fluorophenyl)propanoyl]amino}phenyl)[1,2,4]triazolo[1,5-a]pyridin-2-yl]carbamoyl)oxy]methyl 3-methyl-L-valinate hydrochloride], in series [2], the “% Test Compound after 24 h [F(t = 24 h) × 100/F(t = 0 h)]” value was 0.0%. The “% Test Compound after 4 h [F(t = 24 h) × 100/F(t = 0 h)]” value in series [3] and in series [4] was 0.0% in each case. As to `COc1cc(S(C)(=O)=O)ccc1Nc1nc2cc(-c3ccc(NC(=O)[C@H](C)c4ccc(F)cc4)cc3)ccn2n1` [01.01, (2R)-2-(4-fluorophenyl)-N-[4-(2-{[2-methoxy-4-(methylsulfonyl)phenyl]amino}[1,2,4]triazolo[1,5-a]pyridin-7-yl)phenyl]propanamide], the IC50 in series [1] was ≤ 200 nM.

Consider `C[C@@H](C(=O)Nc1ccc(-c2ccn3nc(Nc4ccc(C(=O)N5CC(F)C5)cc4OCC(F)(F)F)nc3c2)cc1)c1ccc(F)cc1` [Reference Example 01.03, (2R)—N-{4-[2-({4-[(3-fluoroazetidin-1-yl)carbonyl]-2-(2,2,2-trifluoroethoxy)phenyl}amino)[1,2,4]triazolo[1,5-a]pyridin-7-yl]phenyl}-2-(4-fluorophenyl)propanamide], for which the IC50 in series [1] was ≤ 100 nM.
